Where two headings read alike, the source gives them in different places.
Legend:
[1] = system: AsPC-1 (K-Ras G12D); experiment: Potency assay: pERK in AsPC-1 cells; format: cell-based; conditions: Homo sapiens
[2] = biological target: T1, NRAS WT (Homo sapiens, UniProt P01111+P62937); experiment: Ras-Raf disruption/FRET/MOA assay, NRAS WT; format: biochemical
T1 construct: His6
Source text: (§1) Disruption of B-Raf Ras-Binding Domain (BRAF^RBD) Interaction with K-Ras by Compounds of the Invention (Also Called a FRET Assay or an MOA Assay)
(§2) Note—The following protocol describes a procedure for monitoring disruption of K-Ras G12C (GMP-PNP) binding to BRAF^RBD by a compound of the invention. This protocol may also be executed substituting other Ras proteins or nucleotides, such as K-Ras G12D and K-Ras G13D.
(§3) The purpose of this biochemical assay was to measure the ability of test compounds to facilitate ternary complex formation between a nucleotide-loaded K-Ras isoform and Cyclophilin A; the resulting ternary complex disrupts binding to a BRAF^RBD construct, inhibiting K-Ras signaling through a RAF effector.
(§4) In assay buffer containing 25 mM HEPES pH 7.3, 0.002% Tween20, 0.1% BSA, 100 mM NaCl and 5 mM MgCl2, tagless Cyclophilin A, His6-K-Ras-GMPPNP, and GST-BRAF^RBD were combined in a 384-well assay plate at final concentrations of 25 μM, 12.5 nM, and 50 nM, respectively. Compound was present in plate wells as a 10-point 3-fold dilution series starting at a final concentration of 30 μM. After incubation at 25° C. for 3 hours, a mixture of anti-His Eu-W1024 and anti-GST allophycocyanin was then added to assay sample wells at final concentrations of 10 nM and 50 nM, respectively, and the reaction incubated for an additional 1.5 hours. […] Compounds that facilitate disruption of a K-Ras:RAF complex were identified as those eliciting a decrease in the TR-FRET ratio relative to DMSO control wells.

[3] = system: AsPC-1 (K-Ras G12D); experiment: CellTiter-Glo cell viability assay, AsPC-1; format: cell-based; conditions: Homo sapiens, ASPC1, 120 h
Summary of the method: (§5)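 Compounds dispensed directly onto seeded AsPC-1 (K-Ras G12D) or NCI-H358 (K-Ras G12C) cells; CellTiter-Glo luminescence read on day 5 after ~30 min equilibration to room temperature. Signal normalized to DMSO average (%) and fit by four-parameter logistic.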

[4] = system: NCI-H358 (K-Ras G12C); experiment: CellTiter-Glo cell viability assay, H358; format: cell-based; conditions: Homo sapiens, NCI-H358, 120 h
Summary of the method: as §5

[5] = biological target: KRAS Q61H (Homo sapiens, UniProt P01116+P62937, Q61H); experiment: Ras-Raf disruption/FRET/MOA assay, KRAS Q61H; format: biochemical; conditions: KRAS Q61H; read-out: KRAS Q61H FRET data IC50
Source text: as §1, §2, §3, §4

[6] = biological target: T2, NRAS Q61R (Homo sapiens, UniProt P01111+P62937, Q61R); experiment: Ras-Raf disruption/FRET/MOA assay, NRAS Q61R; format: biochemical
T2 construct: His6
Source text: as §1, §2, §3, §4

[7] = biological target: T3, NRAS Q61K (Homo sapiens, UniProt P01111+P62937, Q61K); experiment: Ras-Raf disruption/FRET/MOA assay, NRAS Q61K; format: biochemical
T3 construct: His6
Source text: as §1, §2, §3, §4

[8] = biological target: T4, NRAS G12C (Homo sapiens, UniProt P01111+P62937, G12C); experiment: Ras-Raf disruption/FRET/MOA assay, NRAS G12C; format: biochemical; conditions: NRAS G12C FRET data IC50, NRAS G12C
T4 construct: His6
Summary of the method: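 Disruption of Ras:RAF binding was read as a drop in TR-FRET ratio versus DMSO controls. The buffer was 25 mM HEPES pH 7.3, 0.002% Tween20, 0.1% BSA, 100 mM NaCl and 5 mM MgCl2. Compounds were tested as a 10-point 3-fold dilution series from 30 μM. Detection used 10 nM anti-His Eu-W1024 and 50 nM anti-GST allophycocyanin.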

[9] = biological target: KRAS G12C (Homo sapiens, UniProt P01116+P62937, G12C); experiment: Ras-Raf disruption/FRET/MOA assay, KRAS G12C; format: biochemical
Summary of the method: (§6)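 His6-K-Ras-GMPPNP (12.5 nM) was incubated with GST-BRAF RBD (50 nM), tagless cyclophilin A (25 µM) and compound (10-point 3-fold series from 30 µM) in HEPES pH 7.3 buffer for 3 h at 25 °C. Anti-His Eu/anti-GST APC were then added for 1.5 h; disruption was read as a drop in TR-FRET ratio versus DMSO.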

[10] = biological target: KRAS G12V (Homo sapiens, UniProt P01116+P62937, G12V); experiment: Ras-Raf disruption/FRET/MOA assay, KRAS G12V; format: biochemical
Summary of the method: as §6

[11] = biological target: KRAS G12D (Homo sapiens, UniProt P01116+P62937, G12D); experiment: Ras-Raf disruption/FRET/MOA assay, KRAS G12D; format: biochemical
Summary of the method: as §6

[12] = biological target: KRAS G13C (Homo sapiens, UniProt P01116+P62937, G13C); experiment: Ras-Raf disruption/FRET/MOA assay, KRAS G13C; format: biochemical
Summary of the method: as §6

[13] = biological target: KRAS G12S (Homo sapiens, UniProt P01116+P62937, G12S); experiment: Ras-Raf disruption/FRET/MOA assay, KRAS G12S; format: biochemical
Summary of the method: as §6

[14] = biological target: KRAS G13D (Homo sapiens, UniProt P01116+P62937, G13D); experiment: Ras-Raf disruption/FRET/MOA assay, KRAS G13D; format: biochemical
Summary of the method: as §6

[15] = biological target: KRAS WT (Homo sapiens, UniProt P01116+P62937); experiment: Ras-Raf disruption/FRET/MOA assay, KRAS WT; format: biochemical
Summary of the method: as §6

[16] = ASPC1, read-out: pERK EC50 (AsPC-1 KRAS G12D)
[17] = read-out: AsPC-1 Cell Viability IC50, AsPC-1, K-Ras G12D, 5-day treatment
[18] = read-out: H358 Cell Viability IC50, NCI-H358, K-Ras G12C, 5-day treatment
[19] = ASPC1, AsPC-1 cells, K-Ras G12D, read-out: pERK EC50 (AsPC-1 KRAS G12D)
[20] = AsPC-1, K-Ras G12D, 5-day treatment, read-out: AsPC-1 Cell Viability IC50

T4 sequence (P01111 whole entry G12C): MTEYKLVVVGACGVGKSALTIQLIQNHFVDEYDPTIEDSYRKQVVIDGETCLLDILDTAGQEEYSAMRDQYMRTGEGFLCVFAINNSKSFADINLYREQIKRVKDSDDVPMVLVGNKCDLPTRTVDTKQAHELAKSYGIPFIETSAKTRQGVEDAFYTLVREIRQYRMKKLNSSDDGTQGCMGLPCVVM
T4 sequence (P62937 whole entry): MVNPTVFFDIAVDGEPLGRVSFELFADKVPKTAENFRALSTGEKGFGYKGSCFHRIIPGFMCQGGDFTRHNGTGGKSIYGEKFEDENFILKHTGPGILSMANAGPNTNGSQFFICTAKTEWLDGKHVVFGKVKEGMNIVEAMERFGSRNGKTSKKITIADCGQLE
T1 sequence (P01111 whole entry): as the sequence (P01111 whole entry G12C) above, with C12G counted along it
T1 sequence (P62937 whole entry): as the sequence (P62937 whole entry) above
T2 sequence (P01111 whole entry Q61R): as the sequence (P01111 whole entry G12C) above, with C12G, Q61R counted along it
T2 sequence (P62937 whole entry): as the sequence (P62937 whole entry) above
Chain of KRAS G12V (P01116 1-169 isoform P01116-2 G12V limits assumed): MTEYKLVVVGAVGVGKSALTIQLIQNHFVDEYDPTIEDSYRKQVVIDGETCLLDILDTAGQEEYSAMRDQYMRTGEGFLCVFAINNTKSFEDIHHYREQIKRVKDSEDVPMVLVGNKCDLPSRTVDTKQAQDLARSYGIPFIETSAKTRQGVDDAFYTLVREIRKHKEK
Chain of KRAS G12V (P62937 whole entry): as the sequence (P62937 whole entry) above
Chain of KRAS G12C (P01116 1-169 isoform P01116-2 G12C limits assumed): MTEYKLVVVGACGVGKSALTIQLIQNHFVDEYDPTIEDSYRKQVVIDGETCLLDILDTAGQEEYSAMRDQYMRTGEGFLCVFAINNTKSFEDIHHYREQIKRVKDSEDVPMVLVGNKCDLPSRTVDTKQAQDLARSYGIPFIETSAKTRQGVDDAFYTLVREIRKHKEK
Chain of KRAS G12C (P62937 whole entry): as the sequence (P62937 whole entry) above
Chain of KRAS G12D (P01116 1-169 isoform P01116-2 G12D limits assumed): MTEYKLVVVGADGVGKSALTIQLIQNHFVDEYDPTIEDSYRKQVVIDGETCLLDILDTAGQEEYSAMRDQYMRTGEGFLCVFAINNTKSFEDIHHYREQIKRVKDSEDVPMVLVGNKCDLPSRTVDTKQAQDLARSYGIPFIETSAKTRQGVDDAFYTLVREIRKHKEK
Chain of KRAS G12D (P62937 whole entry): as the sequence (P62937 whole entry) above
Chain of KRAS G12S (P01116 1-169 isoform P01116-2 G12S limits assumed): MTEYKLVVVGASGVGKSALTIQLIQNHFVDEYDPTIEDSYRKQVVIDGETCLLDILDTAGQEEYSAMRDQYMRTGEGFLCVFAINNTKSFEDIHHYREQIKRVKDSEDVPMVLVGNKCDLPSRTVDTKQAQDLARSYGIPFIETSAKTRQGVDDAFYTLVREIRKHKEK
Chain of KRAS G12S (P62937 whole entry): as the sequence (P62937 whole entry) above
Chain of KRAS Q61H (P01116 1-169 isoform P01116-2 Q61H limits assumed): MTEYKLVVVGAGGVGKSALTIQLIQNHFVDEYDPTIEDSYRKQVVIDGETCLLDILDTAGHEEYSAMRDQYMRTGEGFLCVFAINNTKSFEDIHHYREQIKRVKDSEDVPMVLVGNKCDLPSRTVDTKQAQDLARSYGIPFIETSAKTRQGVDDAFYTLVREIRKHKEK
Chain of KRAS Q61H (P62937 whole entry): as the sequence (P62937 whole entry) above
Chain of KRAS G13C (P01116 1-169 isoform P01116-2 G13C limits assumed): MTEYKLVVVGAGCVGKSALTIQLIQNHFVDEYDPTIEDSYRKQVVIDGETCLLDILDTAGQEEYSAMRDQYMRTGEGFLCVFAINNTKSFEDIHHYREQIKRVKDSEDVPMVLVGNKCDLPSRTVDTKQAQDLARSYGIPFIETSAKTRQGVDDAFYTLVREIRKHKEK
Chain of KRAS G13C (P62937 whole entry): as the sequence (P62937 whole entry) above
Chain of KRAS G13D (P01116 1-169 isoform P01116-2 G13D limits assumed): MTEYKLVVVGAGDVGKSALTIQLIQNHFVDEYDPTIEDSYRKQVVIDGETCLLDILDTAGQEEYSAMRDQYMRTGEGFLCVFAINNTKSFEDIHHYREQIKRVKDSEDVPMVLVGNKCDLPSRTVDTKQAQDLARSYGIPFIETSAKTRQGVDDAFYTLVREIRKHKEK
Chain of KRAS G13D (P62937 whole entry): as the sequence (P62937 whole entry) above
T3 sequence (P01111 whole entry Q61K): as the sequence (P01111 whole entry G12C) above, with C12G, Q61K counted along it
T3 sequence (P62937 whole entry): as the sequence (P62937 whole entry) above
Chain of KRAS WT (P01116 1-169 isoform P01116-2 limits assumed): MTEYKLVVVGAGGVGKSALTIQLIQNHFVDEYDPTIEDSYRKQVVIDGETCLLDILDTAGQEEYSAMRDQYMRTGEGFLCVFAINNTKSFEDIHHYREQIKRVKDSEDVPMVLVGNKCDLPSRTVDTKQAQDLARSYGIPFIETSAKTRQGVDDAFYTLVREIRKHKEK
Chain of KRAS WT (P62937 whole entry): as the sequence (P62937 whole entry) above

| SMILES | EC50 [1, 16] [nM] | IC50 [2] [nM] | IC50 [3, 17] [nM] | IC50 [4, 18] [nM] | EC50 [1, 19] [nM] | IC50 [3, 20] [nM] | IC50 [8] [nM] | other results |
| --- | --- | --- | --- | --- | --- | --- | --- | --- |
| CCn1c(-c2cccnc2[C@H](C)OC)c2c3cc(ccc31)-c1cc(O)cc(c1)C[C@H](NC(=O)[C@H](C(C)C)N(C)C(=O)CN(C)C(=O)[C@@H]1CN1CCCOC(C)=O)C(=O)N1CCC[C@H](N1)C(=O)OCC(C)(C)C2 (stereo partly shown) [Compound 267] | < 5000 | 10 to 100 | 100 to 1000 | < 10 |  |  |  |  |
| CCn1c(-c2cccnc2[C@H](C)OC)c2c3cc(ccc31)-c1cccc(c1)C[C@H](NC(=O)[C@H](C1CCCC1)N1CC[C@]3(CCN(C(=O)[C@@H]4N[C@@H]4C4CC4)C3)C1=O)C(=O)N1CCC[C@H](N1)C(=O)OCC(C)(C)C2 [Compound 313] |  |  |  |  | < 5000 | 10 to 100 |  | IC50 [5]: 100 to 1000 nM; IC50 ([4]; NCI-H358, K-Ras G12C, 5-day treatment, read-out: H358 Cell Viability IC50): 100 to 1000 nM |
| CCn1c(-c2cccnc2[C@H](C)OC)c2c3cc(ccc31)-c1cc(O)cc(c1)C[C@H](NC(=O)C(C(C)C)N(C)C(=O)[C@@]1(C)CCCN1C(=O)[C@H]1CN1)C(=O)N1CCC[C@H](N1)C(=O)OCC(C)(C)C2 (stereo partly shown) [Compound 240] |  | 1000 to 10000 |  |  | < 5000 | 1000 to 10000 | 100 to 1000 | IC50 [6]: 1000 to 10000 nM; IC50 [7]: > 10000 nM |
| CCn1c(-c2cnccc2COC)c2c3cc(ccc31)-c1cc(O)cc(c1)C[C@H](NC(=O)[C@H](C(C)C)N(C)C(=O)CN(C)C(=O)[C@H]1CN1)C(=O)N1CCC[C@H](N1)C(=O)OCC(C)(C)C2 [Example 7, (2R)—N-(2-(((2S)-1-(((6^3S,4S)-1^1-ethyl-2^5-hydroxy-1^2-(4-(methoxymethyl)pyridin-3-yl)-10,10-dimethyl-5,7-dioxo-6^1,6^2,6^3,6^4,6^5,6^6-hexahydro-1^1H-8-oxa-1(5,3)-indola-6(1,3)-pyridazina-2(1,3)-benzenacycloundecaphane-4-yl)amino)-3-methyl-1-oxobutan-2-yl)(methyl)amino)-2-oxoethyl)-N-methylaziridine-2-carboxamide] | < 5000 |  | 100 to 1000 | 10 to 100 |  |  | < 10 | IC50 [9]: < 10 nM; IC50 [10]: 100 to 1000 nM; IC50 [11]: 100 to 1000 nM; IC50 [12]: 10 to 100 nM; IC50 [13]: 10 to 100 nM; IC50 [14]: 100 to 1000 nM; IC50 [15]: 100 to 1000 nM |
